How the values were obtained:
[1] = Biodistribution / PET pharmacokinetics of [124I]-zelavespib in MDA-MB-468 tumor-bearing mice (data of ref 32, refitted to exponential decay); type: in vivo, mouse
Procedure: Iodine-124 is a ‘non-residualizing’ isotope (i.e., free iodine-124 washes out from cells), and therefore, data derived from positron emission tomography imaging of MDA-MB-468-bearing mice that were administered a tracer amount of [^124I]-PU-AD can be used to determine real-time zelavespib concentrations delivered to tumors. Because positron emission tomography provides information on radioactivity and not molar concentrations, radioactivity data from Pillarsetty et al. were transformed into tumor concentrations to calculate the time-dependent zelavespib concentrations in tumors for an administered dose of 50 mg/kg. The drug concentration (in μM) in the tumor water space, [Drugtumor], at the time t post-administration is therefore: [Drugtumor]t=Drugdose·[Atumor]t/100%·1/W·1×10^6/MW µM where Drugdose is the administered drug dose (in mg), [Atumor]t is the activity concentration (in % injected dose per milliliter, %ID/mL) of the surrogate radiotracer, W is the water space of the tissue (in mL/g), MW is the molecular weight of the drug (i.e., zelavespib), and the factor 1 × 10^6 converts the concentration to μM. For the drug zelavespib and the surrogate radiotracer […] co-injected in a ratio of ~1 to 10,000, the drug itself is essentially the only significant form of the drug–surrogate combination in the tumor. Thus, for a co-administered dose of zelavespib (zelavespibdose in mg) and a tracer amount of [^124I]-PU-AD, the drug concentration in the tumor water space (using an average water space, W = 0.8 mL/g, and the molecular weight MW = 512) is: [Zelavespibtumor]t=Zelavespibdose · [Atumor]t/100%·2.44×10^3 µM
To study the zelavespib–epichaperome interaction in vivo, we selected, for simplicity, an epichaperome-positive tumor model (e.g., subcutaneously xenografted MDA-MB-468 tumors in mice). Using whole-body PET imaging after the injection of ^124I-labeled zelavespib, Pillarsetty et al. reported drug presence in MDA-MB-468 tumors up to 120 h post-single dose administration (~T1/2 = 60 h). Conversely, zelavespib was no longer observed in non-disease, non-metabolizing tissues after ~8 h, clearing rapidly from plasma, paralleled by a similar rapid clearance from normal tissues (i.e., chaperone-positive but epichaperome-negative). In these tumors, a clear relationship between tumor retention, pharmacodynamic effects, and anti-tumor activity was observed, supporting the notion that zelavespib was in residence with its target over the time it resided in these tumors.
These values are very much in agreement with those reported for zelavespib in human patients. […] Contrasting plasma and normal tissues and organs, the distribution of zelavespib in tumors was best fitted using a bi-exponential model. […] The first phase thus reflects the clearance of systemic agent, while the second is attributable to specific tumor retention.
(§1) Figure 1 Biodistribution of zelavespib in MDA-MB-468 tumor-bearing mice. (a) Biodistribution of [^124I]-Zelavespib in MDA-MB-468 tumors, organs, tissues, and plasma as per ref. [32]. Data are presented as means ± s.d., five mice per time point. Curves for blood, lung, heart, muscle, bone, and brain were fitted using a one-phase decay equation, and kinetics of zelavespib clearance were determined. Tumor curve was fitted to a two-phase exponential decay. k, kfast, and kslow are the rate constants. Half-life (T1/2) is computed as ln(2)/k. […] (b) Illustrative schematic showing the distinct binding kinetics of zelavespib to epichaperomes (slow off-rate) and to chaperone assemblies (fast off-rate). The tumor pharmacokinetics profile recorded in the Phase 2 interval may represent a direct reflection of the in vivo kinetics of target–drug unbinding. koff, kinetic rate constant for dissociation of an epichaperome-zelavespib assembly. Rt, retention time. […]

chaperone assemblies = test: Kinetics of chaperone-zelavespib assembly taken from Phase 1 clearance; design: species or system mouse; conditions: in vivo, fast off-rate
Procedure: as §1

[2] = design: method as in PMID 31668946; conditions: whole-body PET imaging, mice; cited from earlier work
[3] = MDA-MB-468 tumor-bearing mice, one-phase exponential decay fit of data of ref 32
[4] = MDA-MB-468 tumor, bi-exponential fit, Phase 1: 0 to 8 h, data of ref 32
[5] = MDA-MB-468 tumor, bi-exponential fit, slow terminal clearance phase, data of ref 32

half-life (T1/2), bone [1, 3]: 2.84 h | half-life (T1/2), brain [1, 3]: 2.65 h | half-life (T1/2), heart [1, 3]: 3.10 h | half-life (T1/2), lung [1, 3]: 3.37 h | half-life (T1/2), muscle [1, 3]: 5.03 h | half-life (T1/2), plasma/blood [1, 3]: 4.38 h | tumor Phase 1 T1/2 [1, 4]: 2.87 h | tumor Phase 1 rate constant k (kfast) [1, 4]: 0.241 h⁻¹ | tumor Phase 2 T1/2 [1, 5]: 46.8 h | tumor Phase 2 rate constant k (kslow) [1, 5]: 0.015 h⁻¹ | T1/2, chaperone-zelavespib assembly (chaperone assemblies): ~ 3 h
Compound: CC(C)NCCCn1c(Sc2cc3c(cc2I)OCO3)nc2c(N)ncnc21 [zelavespib]
k Phase 1, chaperone-zelavespib assembly (chaperone assemblies): ~ 0.2 h^-1 | T1/2 in MDA-MB-468 tumors [2]: approximately 60 h

Source: article PMC10604720, “Unraveling the Mechanism of Epichaperome Modulation by Zelavespib: Biochemical Insights on Target Occupancy and Extended Residence Time at the Site of Action” (Biomedicines, 2023)
